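Protocol summary: plate cells (96-well), add compound at 5 concentrations, incubate 48 h, interpolate endpoints linearly. GI50 is the concentration that inhibits growth by half.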 Active and inactive are the calls of the source. No stated cut-off is given here; in the data, active = GI50 up to about 1.1 µM and inactive = higher.
Columns and labels:
Experiment in all cases: NCI-60 cell line screen, 48 h
[1] = system: RXF 393
[2] = system: SF-268
[3] = system: SK-MEL-28
[4] = system: TK-10
[5] = system: UO-31
[6] = system: PC-3
[7] = system: MOLT-4
[8] = system: HOP-92
[9] = system: RPMI-8226
[10] = system: NCI-H522
[11] = system: CCRF-CEM
[12] = system: T47D
[13] = system: CAKI-1
[14] = system: HT-29
[15] = system: NCI/ADR-RES
[16] = system: SK-OV-3
[17] = system: K562
[18] = system: A498
[19] = system: SF-539
[20] = system: SN12C

| SMILES | GI50 [1] | GI50 [2] | GI50 [3] | GI50 [4] | GI50 [5] | GI50 [6] | GI50 [7] | GI50 [8] | GI50 [9] | GI50 [10] | GI50 [11] | GI50 [12] | GI50 [13] | GI50 [14] | GI50 [15] | GI50 [16] | GI50 [17] | GI50 [18] | GI50 [19] | GI50 [20] |
| --- | --- | --- | --- | --- | --- | --- | --- | --- | --- | --- | --- | --- | --- | --- | --- | --- | --- | --- | --- | --- |
| COC(=O)N1C2C(C[C@@]1(C)C(=O)OC)c1ccccc1N2S(=O)(=O)c1ccccc1 (some centres not stated) | > 100 µM (inactive) | > 100 µM (inactive) | > 100 µM (inactive) | > 100 µM (inactive) | > 100 µM (inactive) | > 100 µM (inactive) | > 100 µM (inactive) | > 100 µM (inactive) | > 100 µM (inactive) | > 100 µM (inactive) | > 100 µM (inactive) | > 100 µM (inactive) | > 100 µM (inactive) | > 100 µM (inactive) | > 100 µM (inactive) | > 100 µM (inactive) | > 100 µM (inactive) | – | – | – |
| CN(C)c1ccc(/C=C2\N=C(c3ccccc3)N(c3ccc4c(c3)Sc3cc(N5C(=O)/C(=C/c6ccc(N(C)C)cc6)N=C5c5ccccc5)ccc3N4)C2=O)cc1 | – | 19.2 µM (inactive) | 50.8 µM (inactive) | 17.2 µM (inactive) | 18.2 µM (inactive) | 16.9 µM (inactive) | 61.5 µM (inactive) | 18.3 µM (inactive) | 20.4 µM (inactive) | – | 3.73 µM (inactive) | 19.6 µM (inactive) | 17.9 µM (inactive) | 54.7 µM (inactive) | 28.4 µM (inactive) | 13.6 µM (inactive) | 29.6 µM (inactive) | 16.8 µM (inactive) | 17.5 µM (inactive) | 19.1 µM (inactive) |
| NS(=O)(=O)c1nnc(/N=C(/CCC(=O)O)C(=O)O)s1 | – | – | > 100 µM (inactive) | > 100 µM (inactive) | > 100 µM (inactive) | > 100 µM (inactive) | > 100 µM (inactive) | > 100 µM (inactive) | > 100 µM (inactive) | > 100 µM (inactive) | > 100 µM (inactive) | > 100 µM (inactive) | > 100 µM (inactive) | > 100 µM (inactive) | > 100 µM (inactive) | > 100 µM (inactive) | > 100 µM (inactive) | > 100 µM (inactive) | > 100 µM (inactive) | > 100 µM (inactive) |
| CCCCCCCCCCCCCCCC(=O)Nc1ccn(C2CC(OP(=O)(O)OCC3OC(n4cc(F)c(=O)[nH]c4=O)CC3OC(C)=O)C(CO)O2)c(=O)n1 (configuration not stated) | > 41 µM (inactive) | 0.528 µM (active) | 30.5 µM (inactive) | > 64 µM (inactive) | 0.565 µM (active) | 7.87 µM (inactive) | 7.55 µM (inactive) | – | 3.81 µM (inactive) | 9.04 µM (inactive) | 3.18 µM (inactive) | 20.8 µM (inactive) | 1.56 µM (inactive) | 7.62 µM (inactive) | 11.4 µM (inactive) | > 21.2 µM (inactive) | 13.3 µM (inactive) | > 35 µM (inactive) | 0.07 µM (active) | 6.03 µM (inactive) |
| O=C(COc1ccc(Cl)cc1Cl)N/N=C/C=C/c1ccc([N+](=O)[O-])o1 | 6.07 µM (inactive) | 29.4 µM (inactive) | 4.08 µM (inactive) | 7.67 µM (inactive) | 5.05 µM (inactive) | 12.6 µM (inactive) | 2.28 µM (inactive) | – | 2.26 µM (inactive) | 1.04 µM (active) | 3.13 µM (inactive) | > 100 µM (inactive) | > 100 µM (inactive) | 7.01 µM (inactive) | 11.9 µM (inactive) | 14.6 µM (inactive) | 4.43 µM (inactive) | 11.5 µM (inactive) | 7.31 µM (inactive) | 8.47 µM (inactive) |
| O=C(C/N=C(\CN(c1ccccc1)c1ccccc1)Oc1c(Cl)cc(Cl)cc1Cl)n1cnc2ccccc21 | < 0.01 µM (active) | > 100 µM (inactive) | > 100 µM (inactive) | > 100 µM (inactive) | – | 27.5 µM (inactive) | 18.1 µM (inactive) | 59.6 µM (inactive) | 44.6 µM (inactive) | 84.1 µM (inactive) | 33.8 µM (inactive) | 33.3 µM (inactive) | – | 44.2 µM (inactive) | 38.3 µM (inactive) | > 100 µM (inactive) | 80.7 µM (inactive) | – | > 100 µM (inactive) | 56.2 µM (inactive) |
| Cc1cc(Nc2ccc(S(=O)(=O)O)cc2)c2ccccc2n1 | – | > 100 µM (inactive) | > 100 µM (inactive) | > 100 µM (inactive) | > 100 µM (inactive) | > 100 µM (inactive) | > 100 µM (inactive) | > 100 µM (inactive) | > 100 µM (inactive) | > 100 µM (inactive) | > 100 µM (inactive) | > 100 µM (inactive) | > 100 µM (inactive) | > 100 µM (inactive) | > 100 µM (inactive) | > 100 µM (inactive) | > 100 µM (inactive) | > 100 µM (inactive) | > 100 µM (inactive) | > 100 µM (inactive) |
| COc1ccc2c(c1)CC[C@@H]1[C@@H]2CC[C@]2(C)C(=O)/C(=C/c3ccc(N(C)C)cc3)C[C@@H]12 | 27 µM (inactive) | 32.4 µM (inactive) | – | 33.2 µM (inactive) | 98.9 µM (inactive) | 47.2 µM (inactive) | > 100 µM (inactive) | 24.2 µM (inactive) | > 100 µM (inactive) | – | – | 44.1 µM (inactive) | 28.1 µM (inactive) | – | 33 µM (inactive) | 53.7 µM (inactive) | – | 30.3 µM (inactive) | > 100 µM (inactive) | – |
| C[C@]12Cc3cnc(-c4ccccc4)nc3C[C@@H]1CC[C@@H]1[C@@H]2CC[C@@]2(C)[C@H]1CC[C@]2(C)O | – | 12.9 µM (inactive) | 18.6 µM (inactive) | 23.2 µM (inactive) | 3.03 µM (inactive) | 13.9 µM (inactive) | 34.3 µM (inactive) | 22.8 µM (inactive) | 5.06 µM (inactive) | 10.7 µM (inactive) | 13.9 µM (inactive) | 11 µM (inactive) | 4.98 µM (inactive) | 4.15 µM (inactive) | 15.4 µM (inactive) | 18 µM (inactive) | 2.96 µM (inactive) | 16.3 µM (inactive) | 1.33 µM (inactive) | 17.9 µM (inactive) |
| O=C(c1ccccc1)c1ccc2[nH]c(-c3c(Cl)c(Cl)c(Cl)c(Cl)c3C(=O)N/N=C/c3cccc(Oc4ccccc4)c3)nc2c1 | 68.2 µM (inactive) | 76.7 µM (inactive) | > 100 µM (inactive) | > 100 µM (inactive) | > 100 µM (inactive) | 77.4 µM (inactive) | 50.4 µM (inactive) | 55.7 µM (inactive) | > 100 µM (inactive) | 45 µM (inactive) | 39.6 µM (inactive) | 36.1 µM (inactive) | > 100 µM (inactive) | > 100 µM (inactive) | 95.1 µM (inactive) | > 100 µM (inactive) | 46.5 µM (inactive) | – | > 100 µM (inactive) | > 100 µM (inactive) |
| O=C(c1ccco1)N(Cc1ccco1)C(=S)Nc1ccccc1 | 16 µM (inactive) | 20.2 µM (inactive) | 15 µM (inactive) | 18.8 µM (inactive) | 16.5 µM (inactive) | 30.5 µM (inactive) | 7.08 µM (inactive) | 7.53 µM (inactive) | 3.1 µM (inactive) | 16.9 µM (inactive) | 3.79 µM (inactive) | 14.1 µM (inactive) | 7.08 µM (inactive) | 8.71 µM (inactive) | 21.9 µM (inactive) | > 100 µM (inactive) | 3.33 µM (inactive) | – | 6.46 µM (inactive) | 14.5 µM (inactive) |
| COc1ccc2oc(=N)c(C(N)=S)cc2c1 | 17 µM (inactive) | 15.5 µM (inactive) | 30.4 µM (inactive) | 26.1 µM (inactive) | 19.6 µM (inactive) | 27.5 µM (inactive) | 20 µM (inactive) | 24 µM (inactive) | 21.3 µM (inactive) | 17.5 µM (inactive) | 20.5 µM (inactive) | 23.7 µM (inactive) | 37.8 µM (inactive) | 32 µM (inactive) | 16.8 µM (inactive) | 33.2 µM (inactive) | 28.4 µM (inactive) | – | 22.1 µM (inactive) | 27.2 µM (inactive) |
| Cc1ccc(C2=C(C#N)C(=O)N3CCN=C3S2)cc1 | > 100 µM (inactive) | – | > 100 µM (inactive) | > 100 µM (inactive) | > 100 µM (inactive) | > 100 µM (inactive) | > 100 µM (inactive) | > 100 µM (inactive) | – | > 100 µM (inactive) | > 100 µM (inactive) | > 100 µM (inactive) | > 100 µM (inactive) | 57.1 µM (inactive) | > 100 µM (inactive) | > 100 µM (inactive) | 58.2 µM (inactive) | – | > 100 µM (inactive) | > 100 µM (inactive) |
| COC(=O)[C@H](Cc1c[nH]c2ccccc12)NP(=O)(OCCC#N)OCC1OC(n2cc(C)c(=O)[nH]c2=O)CC1N=[N+]=[N-] (some centres not stated) | > 100 µM (inactive) | > 100 µM (inactive) | – | > 100 µM (inactive) | > 100 µM (inactive) | > 100 µM (inactive) | > 100 µM (inactive) | > 100 µM (inactive) | > 100 µM (inactive) | > 100 µM (inactive) | > 100 µM (inactive) | > 100 µM (inactive) | > 100 µM (inactive) | > 100 µM (inactive) | > 100 µM (inactive) | > 100 µM (inactive) | > 100 µM (inactive) | – | – | > 100 µM (inactive) |
| O=C(O)c1cc(O)c2c(c1)Cc1cccc(O)c1C2=O | – | 25.4 µM (inactive) | 34.1 µM (inactive) | 34.4 µM (inactive) | 17.4 µM (inactive) | 29.2 µM (inactive) | 22.7 µM (inactive) | 17.2 µM (inactive) | 21.9 µM (inactive) | – | 29.4 µM (inactive) | 38.6 µM (inactive) | – | 42.9 µM (inactive) | 24.9 µM (inactive) | 30.5 µM (inactive) | 40 µM (inactive) | 26.9 µM (inactive) | – | 16.6 µM (inactive) |

From ChEMBL document CHEMBL1201862, “PubChem BioAssay data set” (2004)
